Laboratory results from US20060188913A1, “Methods and products for enhancing immune responses using imidazoquinoline compounds” (University of Iowa Research Foundation, priority 2001, published 2006).

Columns and labels:
Format in all cases: cell-based
human PBMC [1] = test: IP-10 secretion by human PBMC (ELISA); settings: 48 hours, ODN 0.2-3.0 μg/ml versus R-848 0.01-1.0 μg/ml, FIG. 6A
Method: (§1) This experiment investigated the induction of the Th1 cytokine IFN-gamma as well as the Th1-related chemokine IP-10 (IFN-gamma inducible protein). Unfractionated human PBMC from three donors were incubated for 48 hours in the presence of varying concentrations of R-848 (0.01-1.0 μg/ml), varying concentrations of CpG ODN 2006 (0.2-3.0 μg/ml), varying concentrations of negative control ODN 5177 (0.2-3.0 μg/ml), SEB (50 ng/ml), or media alone, and then the concentrations of IP-10 and IFN-gamma in the supernatant were measured by ELISA.
In FIG. 6B, the combined effects of R-848 and CpG ODN (e.g., #2006) on IP-10 secretion are shown. Human PBMCs from three different donors were incubated for 48 hours with the indicated concentrations of ODNs and R-848, either individually or together. Supernatants were harvested and IP-10 was measured by ELISA. The data represent mean cytokine amounts.

human PBMC [2] = test: IFN-gamma secretion by human PBMC (ELISA); settings: 48 hours, compared to R-848, not shown
Method: as §1

hTLR9 = biological target: T1, hTLR9 (Homo sapiens, UniProt Q9NR96, H530R/Q688R); test: Reconstitution of hTLR9 signaling in 293 fibroblasts (NF-kappa B luciferase, IL-8 ELISA); settings: 2006 2 μM, LPS 100 ng/ml, FIG. 10
T1 construct: 293-TLR9-Luc cells contain a genomic copy of the hTLR9 open reading frame and the NF-kappa B-luciferase cassette; expressed in transfected cells; host or cells: 293-TLR9-Luc (stably transfected human embryo kidney 293 cells)
T1 sequence (Q9NR96 26-1032 H530R/Q688R): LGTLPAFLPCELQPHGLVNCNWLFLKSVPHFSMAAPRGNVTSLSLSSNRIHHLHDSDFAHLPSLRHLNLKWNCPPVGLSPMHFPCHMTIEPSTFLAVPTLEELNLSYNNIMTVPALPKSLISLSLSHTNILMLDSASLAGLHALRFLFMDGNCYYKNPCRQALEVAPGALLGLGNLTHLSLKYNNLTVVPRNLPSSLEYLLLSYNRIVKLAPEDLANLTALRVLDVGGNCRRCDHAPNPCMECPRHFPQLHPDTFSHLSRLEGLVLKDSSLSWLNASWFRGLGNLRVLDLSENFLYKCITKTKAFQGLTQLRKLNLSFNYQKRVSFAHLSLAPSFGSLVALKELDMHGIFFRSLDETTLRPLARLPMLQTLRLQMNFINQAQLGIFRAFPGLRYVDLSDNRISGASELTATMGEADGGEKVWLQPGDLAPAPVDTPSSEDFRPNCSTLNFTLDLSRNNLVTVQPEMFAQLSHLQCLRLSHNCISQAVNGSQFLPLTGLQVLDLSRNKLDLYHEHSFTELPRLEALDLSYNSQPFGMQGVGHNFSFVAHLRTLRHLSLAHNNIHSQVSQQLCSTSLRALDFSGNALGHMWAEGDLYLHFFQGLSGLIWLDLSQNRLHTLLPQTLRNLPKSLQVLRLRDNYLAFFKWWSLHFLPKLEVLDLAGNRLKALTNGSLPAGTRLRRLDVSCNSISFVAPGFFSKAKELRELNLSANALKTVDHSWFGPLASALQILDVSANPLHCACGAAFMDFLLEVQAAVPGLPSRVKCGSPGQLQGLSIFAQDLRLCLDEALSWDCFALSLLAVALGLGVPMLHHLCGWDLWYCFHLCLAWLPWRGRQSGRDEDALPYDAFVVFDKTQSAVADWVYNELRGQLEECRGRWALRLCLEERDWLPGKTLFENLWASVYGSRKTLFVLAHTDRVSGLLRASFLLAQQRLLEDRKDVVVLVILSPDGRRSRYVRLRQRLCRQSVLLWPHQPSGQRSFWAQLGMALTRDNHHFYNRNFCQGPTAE
Text: Methods for cloning murine and human TLR9 have been described in pending U.S. patent application Ser. No. 09/954,987, filed Sep. 17, 2001, and published PCT application PCT/US01/29229, the contents of which are incorporated by reference. Human TLR9 cDNA (SEQ ID NO:6, GenBank Accession No. AF245704) and murine TLR9 cDNA (SEQ ID NO:8, GenBank Accession No. AF348140) in pT-Adv vector (from Clontech) were individually cloned into the expression vector pcDNA3.1 (−) from Invitrogen using the EcoRi site. Utilizing a “gain of function” assay it was possible to reconstitute human TLR9 (hTLR9) and murine TLR9 (mTLR9) signaling in CpG-DNA non-responsive human 293 fibroblasts (ATCC, CRL-1573). The expression vectors mentioned above were transfected into 293 fibroblast cells using the calcium phosphate method. […]
Since NF-kappa B activation is central to the IL-1/TLR signal transduction pathway (Medzhitov R et al. (1998) Mol Cell 2:253-258 (1998); Muzio M et al. (1998) J Exp Med 187:2097-101), cells were transfected with hTLR9 or co-transfected with hTLR9 and an NF-kappa B-driven luciferase reporter construct. […] After stimulus with CpG-ODN (2006, 2 μM, […], SEQ ID NO:1), GpC-ODN (2006-GC, 2 μM, […], SEQ ID NO:10), LPS (100 ng/ml) or media, NF-kappa B activation by luciferase readout (8 h, FIG. 10A) or IL-8 production by ELISA (48 h, FIG. 10B) were monitored. […]

For CpG ODN 2006, the IP-10 induction (human PBMC [1]) was “induced similar amounts of IP-10 compared to R-848”, the IFN-gamma induction (human PBMC [2]) was “The same result was obtained” and the “response of cells expressing hTLR9 (NF-kappa B luciferase 8 h, IL-8 48 h)” value (hTLR9) was “responded to CpG-DNA”.
